In brackets after ≈: the same amount, converted by molar mass. Where two headings read alike, the source gives them in different places. Marks after values point to notes of the source that are not given here.
Columns and labels:
[1] = test system: HeLa cells
[2] = test system: MRSA-2 biofilms; experiment: Calgary Biofilm Device (CBD) assay, MBC/MBEC; conditions: CBD; for MRSA-2 MBEC: biofilm eradication
[3] = test system: MRSA BAA-1707 biofilms; experiment: Calgary Biofilm Device (CBD) assay, MBC/MBEC; conditions: CBD; for MRSA BAA-1707 MBEC: biofilm eradication; for MRSA BAA-1707 MBC: planktonic killing
[4] = test system: MRSA BAA-1707; experiment: MIC, broth microdilution (CLSI); conditions: 16 to 18 hours at 37° C.; 0.10 = lowest concentration tested
[5] = test system: MRSE 35984; experiment: MIC, broth microdilution (CLSI); conditions: 16 to 18 hours at 37° C.
[6] = test system: VRE 700221; experiment: MIC, broth microdilution (CLSI); conditions: 16 to 18 hours at 37° C.
[7] = test system: human red blood cells
[8] = test system: MRSE 35984 biofilms; experiment: Calgary Biofilm Device (CBD) assay, MBC/MBEC; conditions: CBD; for MRSE 35984 MBEC: biofilm eradication; for MRSE 35984 MBC: planktonic killing
[9] = test system: M. tuberculosis H37Ra (ATCC 25177); experiment: MIC assay for Mycobacterium tuberculosis; format: cell-based; conditions: read-out: MtB H37Ra MIC
Method: (§1) The culture was then diluted with fresh medium until an OD600 of 0.01 was reached. […] The final DMSO concentration was maintained at 0.5%. […] Three rows were reserved for each compound. […] OD600 absorbance was recorded using SPECTRAMAX M5 (Molecular Devices). Data obtained from three independent experiments were analyzed using Excel.
as §1, with “SpectraMax” for “SPECTRAMAX”

Cc1ccc2nc3c(O)c(Br)cc(Br)c3nc2c1 [52A]
IC50 [1]: > 100 µM

CCc1ccc2nc3c(O)c(Br)cc(Br)c3nc2c1 [53A]
IC50 [1]: > 50 µM

CCCc1ccc2nc3c(O)c(Br)cc(Br)c3nc2c1 [54A]
IC50 [1]: > 50 µM

CC(C)(C)c1ccc2nc3c(O)c(Br)cc(Br)c3nc2c1 [55A]
IC50 [1]: > 100 µM
MRSA-2 MBEC [2]: 3.13 µM

Cc1cc(C)c2nc3c(Br)cc(Br)c(O)c3nc2c1 [56A]
IC50 [1]: > 100 µM
MRSA BAA-1707 MBEC [3]: 4.69 µM

Cc1cc2nc3c(O)c(Br)cc(Br)c3nc2c(C)c1C [59A]
IC50 [1]: > 100 µM

Oc1c(Br)cc(Br)c2nc3cc(Oc4ccccc4)ccc3nc12 [63A]
IC50 [1]: > 100 µM
MRSA BAA-1707 MIC [4]: 0.075 µM
MRSE 35984 MIC [5]: 0.1 µM
VRE 700221 MIC [6]: 0.2 µM
MRSA BAA-1707 MBEC [3]: 2.35 µM

CCN(CC)c1ccc2nc3c(O)c(Br)cc(Br)c3nc2c1Br [64A]
IC50 [1]: > 100 µM
MRSA BAA-1707 MBEC [3]: 4.69 µM

Cc1ccc2nc3c(O)ccc(Br)c3nc2c1 [66A]
IC50 [1]: > 100 µM

CC1=C(C)C(=O)C(COC(=O)OCOc2c(Br)cc(Br)c3nc4cc(Cl)ccc4nc23)=C(C)C1=O [87A]
IC50 [1]: > 100 µM
Hemolysis at 200 μM [7]: 2.7%
MRSA BAA-1707 MIC [4]: 0.15 µM
MRSA BAA-1707 MBEC [3]: 12.5 µM

N#CC(C#N)=NNc1cccc(Cl)c1 [CCCP, reference compound]
MRSA-2 MBEC [2]: 1000 µM
MRSA-2 MBC ([2]; planktonic killing): 31.3 µM
MRSE 35984 MBEC [8]: 93.8 µM
MRSE 35984 MBC [8]: 31.3 µM

Oc1c(Br)cc(Br)c2nc3cc(Cl)ccc3nc12 [Compound 27]
MIC ([9]; seven days at 37° C.): 3.13 µM (≈ 1.22 µg/mL)
MRSA BAA-1707 MIC [4]: 0.1 µM
MRSE 35984 MBEC [8]: 2.35 µM

CCCc1ccc2nc3c(O)c(Br)cc(Br)c3nc2c1 [Compound 54A]
Hemolysis at 200 μM [7]: 2.1%
MRSA BAA-1707 MIC [4]: 0.1^b μM
MRSE 35984 MIC [5]: 0.15^a μM
VRE 700221 MIC [6]: 3.13 µM
MRSA BAA-1707 MBEC [3]: 75 µM
MRSA BAA-1707 MBC [3]: 37.5 µM
MRSE 35984 MBEC [8]: 37.5 µM
MRSE 35984 MBC [8]: 25 µM

Cc1cc2nc3c(O)c(Br)cc(Br)c3nc2c(C)c1C [Compound 59A]
Hemolysis at 200 μM [7]: 1.3%
MRSA BAA-1707 MIC [4]: 0.59^a μM
MRSE 35984 MIC [5]: 0.1^b μM
MRSA BAA-1707 MBEC [3]: 75 µM
MRSA BAA-1707 MBC [3]: 150 µM
MRSE 35984 MBEC [8]: 5 µM
MRSE 35984 MBC [8]: 25 µM

Cc1ccc2nc3c(O)ccc(Br)c3nc2c1 [Compound 66A]
MIC [9]: 25 µM (≈ 7.23 µg/mL)
MRSA BAA-1707 MIC [4]: 12.5 ^ μM
MRSE 35984 MIC [5]: 12.5 µM
VRE 700221 MIC [6]: 25 µM

CCc1ccc2nc3c(O)ccc(Br)c3nc2c1 [Compound 67A]
MIC [9]: 25 µM (≈ 7.58 µg/mL)
IC50 [1]: > 100 µM
MRSE 35984 MIC [5]: 9.38^a μM
VRE 700221 MIC [6]: 12.5 µM
